Experimental data: patent US3945994A, “Novel acid compounds” (Gist-Brocades N.V., priority 1973, dated 1976)
Converted amounts (≈) assume the structure as drawn. Read-outs that look alike come from different tables or passages of the source.

How the values were obtained:
Assay type in all cases: cell-based
Salmonella dublin P 43 = conditions: Salmonella enterica, P43; agar serial dilution, 24 hours at 37°C
[1] = test system: Diplococcus pneumoniae L 54; conditions: Streptococcus pneumoniae, L54; agar serial dilution, 24 hours at 37°C
[2] = test system: Staphylococcus aureus A 2000; conditions: A2000, agar serial dilution, 24 hours at 37°C
[3] = test system: Streptococcus faecalis L 80; conditions: Enterococcus faecalis, L80; agar serial dilution, 24 hours at 37°C
Proteus mirabilis A1200 = assay: micro serial dilution test, MIC; conditions: micro serial dilution (between brackets), 30°C or 37°C, about 18 hours
[4] = test system: Pasteurella multocida A 723; conditions: A723, agar serial dilution, 24 hours at 37°C
[5] = test system: Bacillus subtilis ATCC 6633; conditions: ATCC6633, agar serial dilution, 24 hours at 37°C
[6] = test system: Pseudomonas aeruginosa H 10; conditions: H10, agar serial dilution, 24 hours at 37°C
[7] = test system: Haemophilus influenzae A 1030; assay: micro serial dilution test, MIC; conditions: A1030, micro serial dilution (between brackets), 30°C or 37°C, about 18 hours
[8] = test system: Staphylococcus aureus A 321; conditions: A321, agar serial dilution, 24 hours at 37°C
[9] = test system: Salmonella typhimurium R172; conditions: Salmonella enterica, agar serial dilution, 24 hours at 37°C
Proteus mirabilis H3 = assay: micro serial dilution test, MIC; conditions: micro serial dilution (between brackets), 30°C or 37°C, about 18 hours
[10] = test system: Staphylococcus aureus A 2001; conditions: A2001, agar serial dilution, 24 hours at 37°C
[11] = test system: Klebsiella pneumoniae A 809; conditions: A809, agar serial dilution, 24 hours at 37°C
[12] = test system: Pseudomonas aeruginosa 2396; conditions: agar serial dilution, 24 hours at 37°C
Escherichia coli U 20 = conditions: U20, agar serial dilution, 24 hours at 37°C
Proteus rettgeri A 821 [13] = assay: micro serial dilution test, MIC; conditions: Providencia rettgeri, A821; micro serial dilution (between brackets), 30°C or 37°C, about 18 hours
Proteus morganii 2241 = conditions: Morganella morganii, agar serial dilution, 24 hours at 37°C
[14] = test system: Streptococcus haemolyticus A 1088; conditions: A1088, agar serial dilution, 24 hours at 37°C
[15] = test system: Pseudomonas aeruginosa Wyeth A 1058; conditions: WYETHA1058, agar serial dilution, 24 hours at 37°C
[16] = test system: Staphylococcus aureus A 355'; conditions: agar serial dilution, 24 hours at 37°C
[17] = test system: Haemophilus influenzae A 1030; conditions: A1030, agar serial dilution, 24 hours at 37°C
[18] = test system: Salmonella typhimurium R 127; conditions: Salmonella enterica, agar serial dilution, 24 hours at 37°C
Proteus mirabilis H 3 = conditions: H3, agar serial dilution, 24 hours at 37°C
Proteus mirabilis A 1200 = conditions: A1200, agar serial dilution, 24 hours at 37°C
[19] = test system: Streptococcus haemolyticus A 266; conditions: A266, agar serial dilution, 24 hours at 37°C
Proteus rettgeri A 821 [20] = conditions: Providencia rettgeri, A821; agar serial dilution, 24 hours at 37°C

MIC (Salmonella dublin P 43)	MIC [1]	MIC [2]	MIC [3]	MIC [4]	MIC [5]	MIC [6]	MIC [8]	MIC [10]	MIC [11]	MIC [12]	MIC (Escherichia coli U 20)	MIC (Proteus morganii 2241)	MIC [15]	Compound	also measured
1.5 µg/mL (≈ 3.96 µM)	0.5 µg/mL (≈ 1.32 µM)	3 µg/mL (≈ 7.93 µM)	25 µg/mL (≈ 66.1 µM)	0.25 µg/mL (≈ 0.661 µM)	0.06 µg/mL (≈ 0.159 µM)	100 µg/mL (≈ 264 µM)	0.75 µg/mL (≈ 1.98 µM)	3 µg/mL (≈ 7.93 µM)	> 100 µg/mL	25 µg/mL (≈ 66.1 µM)	1.5 µg/mL (≈ 3.96 µM)	1.5 µg/mL (≈ 3.96 µM)	25 µg/mL (≈ 66.1 µM)	CC1(C)S[C@@H]2[C@H](NC(=O)C(C(=O)O)c3ccccc3)C(=O)N2[C@H]1C(=O)O (some centres unmarked) [carbenicillin, reference compound]	MIC (Proteus mirabilis A1200): 0.45 µg/mL (≈ 1.19 µM); MIC [7]: 90 µg/mL (≈ 238 µM); MIC [9]: 6 µg/mL (≈ 15.9 µM); MIC (Proteus mirabilis H3): 0.6 µg/mL (≈ 1.59 µM); MIC (Proteus rettgeri A 821 [13]): 0.12 µg/mL (≈ 0.317 µM); MIC [14]: 0.25 µg/mL (≈ 0.661 µM)
12.5 µg/mL (≈ 22.4 µM)	9 µg/mL (≈ 16.1 µM)	12.5 µg/mL (≈ 22.4 µM)	25 µg/mL (≈ 44.8 µM)	0.25 µg/mL (≈ 0.448 µM)	1 µg/mL (≈ 1.79 µM)	> 100 µg/mL	1.5 µg/mL (≈ 2.69 µM)	6 µg/mL (≈ 10.7 µM)	100 µg/mL (≈ 179 µM)	50 µg/mL (≈ 89.5 µM)	12.5 µg/mL (≈ 22.4 µM)	6 µg/mL (≈ 10.7 µM)	100 µg/mL (≈ 179 µM)	CCOC(=O)NNS(=O)(=O)NC(=O)N[C@@H](C(=O)N[C@@H]1C(=O)N2[C@@H]1SC(C)(C)[C@@H]2C(=O)O)c1ccccc1 [XV, D-6-[α-{3-(ethoxycarbonylhydrazinosulfonyl)-ureido}benzylcarbonamido]-penicillanic acid]	MIC [16]: 12.5 µg/mL (≈ 22.4 µM); MIC [17]: 1.5 µg/mL (≈ 2.69 µM); MIC [18]: 50 µg/mL (≈ 89.5 µM); MIC (Proteus mirabilis H 3): 3 µg/mL (≈ 5.37 µM); MIC (Proteus mirabilis A 1200): 1.5 µg/mL (≈ 2.69 µM); MIC [19]: 0.5 µg/mL (≈ 0.895 µM); MIC (Proteus rettgeri A 821 [20]): 1 µg/mL (≈ 1.79 µM)
